Molecules are shown by their SMILES. Read-outs that look alike come from different tables or passages of the source.

From US8354436B2 (4SC Discovery GmbH, priority 2011, dated 2013) come the findings set out here.

Holding throughout (type): cell-based
Settings in all cases: 48 hours

In one assay the test system is IFN-γ. Description: IFN-γ production by PHA-stimulated human PBMC (OptEIA human IFN-g ELISA). The essentials: (§1)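 Compounds are titrated semilogarithmically for IC50, or tested at 10, 1, 0.1 and 0.01 μM for screening, on healthy-donor PBMC activated with 2 μg/ml PHA. After 48 h, secreted cytokine is measured in supernatant.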
Assay [1] has as its system PBMC from healthy human donors. As to the kind of experiment: T cell proliferation assay (PHA-stimulated human PBMC, BrdU ELISA). The essentials: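 Healthy-donor PBMC isolated on Ficoll, seeded at 1×10⁵ cells/well in RPMI with 10% dialysed FCS, stimulated with 2 μg/ml PHA in presence of test compound. Proliferation read after 48 hours by BrdU-incorporation ELISA.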
(Dividing cells build labelled thymidine or BrdU into new DNA.)

In a further assay the test system is IL-17FF. As to the kind of experiment: IL-17FF production by PHA-stimulated human PBMC (human IL-17F ELI-Pair). The essentials:
as §1

The mark [2] stands for this setting: human PBMC, 2 μg/ml PHA, read-out: C: IC50 (IFNγ).
The mark [3] stands for this setting: human PBMC, 2 μg/ml PHA, read-out: D: IC50 (Tcell proliferation).
Setting [4] is: human PBMC, 2 μg/ml PHA, read-out: B: IC50 (IL-17FF).
Setting [5] is: PHA-stimulated human PBMC, column C, read-out: IC50 (IFNγ).
Where [6] appears, read: PHA-stimulated human PBMC, column D, read-out: IC50 (Tcell proliferation).
Where [7] appears, read: PHA-stimulated human PBMC, column B, read-out: IC50 (IL-17FF).

Consider `Cc1nnc(-c2c(-c3c(F)cccc3Cl)noc2-c2cnn(-c3cccnc3)c2C(F)(F)F)s1` [Example B-21, 3-(2-chloro-6-fluorophenyl)-4-(5-methyl-1,3,4-thiadiazol-2-yl)-5-(1-(pyridin-3-yl)-5-(trifluoromethyl)-1H-pyrazol-4-yl)isoxazole], for which the IC50 (with IFN-γ (setting [2]); in assay [1] (setting [3]); with IL-17FF (setting [4])) was 10 to 100 nM throughout.
Consider `Cc1nnc(-c2c(-c3c(F)cccc3Cl)noc2-c2cnn(-c3ccncc3)c2C(F)(F)F)s1` [Example B-22, 3-(2-chloro-6-fluorophenyl)-4-(5-methyl-1,3,4-thiadiazol-2-yl)-5-(1-(pyridin-4-yl)-5-(trifluoromethyl)-1H-pyrazol-4-yl)isoxazole], for which the IC50 in the assay on IFN-γ (setting [2]) fell in the range of 10 to 100 nM; in assay [1] (setting [3]), 100 to 1000 nM; with IL-17FF (setting [4]) it was 100 to 1000 nM.
For the compound `Cc1nnc(-c2c(-c3c(F)cccc3Cl)noc2-c2cnn(-c3cccc(S(N)(=O)=O)c3)c2C(F)(F)F)s1` [Example B-23, 3-(4-(3-(2-chloro-6-fluorophenyl)-4-(5-methyl-1,3,4-thiadiazol-2-yl)isoxazol-5-yl)-5-(trifluoromethyl)-1H-pyrazol-1-yl)benzenesulfonamide], the IC50 (in the assay on IFN-γ (setting [2]); in assay [1] (setting [3]); in the assay on IL-17FF (setting [4])) was 1000 to 10000 nM each time.
Consider `Fc1cccc(Cl)c1-c1noc(-c2cnn(-c3ccncc3)c2C(F)(F)F)c1-c1ccoc1` [Example B-24, 3-(2-chloro-6-fluorophenyl)-4-(furan-3-yl)-5-(1-(pyridin-4-yl)-5-(trifluoromethyl)-1H-pyrazol-4-yl)isoxazole], for which the IC50 (with IFN-γ (setting [2]); in assay [1] (setting [3]); with IL-17FF (setting [4])) was 10 to 100 nM each time.
Consider `Fc1cccc(Cl)c1-c1noc(-c2cnn(-c3ccccn3)c2C(F)(F)F)c1-c1nnco1` [Example B-25, 2-(3-(2-chloro-6-fluorophenyl)-5-(1-(pyridin-2-yl)-5-(trifluoromethyl)-1H-pyrazol-4-yl)isoxazol-4-yl)-1,3,4-oxadiazole], for which the IC50 with IFN-γ (setting [2]) was 10 to 100 nM; in assay [1] (setting [3]), 10 to 100 nM; in the assay on IL-17FF (setting [4]), 100 to 1000 nM.
`Cc1nnc(-c2c(-c3c(F)cccc3Cl)noc2-c2cnn(-c3ccccn3)c2C(F)(F)F)o1` [Example B-26, 2-(3-(2-chloro-6-fluorophenyl)-5-(1-(pyridin-2-yl)-5-(trifluoromethyl)-1H-pyrazol-4-yl)isoxazol-4-yl)-5-methyl-1,3,4-oxadiazole]: the IC50 in the assay on IFN-γ (setting [2]) was in the range of 10 to 100 nM; in assay [1] (setting [3]) it was 100 to 1000 nM; with IL-17FF (setting [4]), 10 to 100 nM.
For the compound `Cc1nnc(-c2c(-c3c(F)cccc3Cl)noc2-c2cnn(-c3ccccn3)c2C(F)(F)F)s1` [Example B-27, 3-(2-chloro-6-fluorophenyl)-4-(5-methyl-1,3,4-thiadiazol-2-yl)-5-(1-(pyridin-2-yl)-5-(trifluoromethyl)-1H-pyrazol-4-yl)isoxazole], the IC50 (in the assay with IFN-γ (setting [2]); in assay [1] (setting [3]); in the assay with IL-17FF (setting [4])) was 10 to 100 nM each time.
For the compound `Fc1ccccc1-n1ncc(-c2onc(-c3c(F)cccc3Cl)c2-c2cnco2)c1C(F)(F)F` [Example B-28, 3-(2-chloro-6-fluorophenyl)-5-(1-(2-fluorophenyl)-5-(trifluoromethyl)-1H-pyrazol-4-yl)-4-(oxazol-5-yl)isoxazole], the IC50 (in the assay with IFN-γ (setting [2]); in assay [1] (setting [3]); with IL-17FF (setting [4])) was 100 to 1000 nM each time.
On to `Fc1cccc(Cl)c1-c1noc(-c2cnn(-c3ccccc3Cl)c2C(F)(F)F)c1-c1nccs1` [Example B-29, 3-(2-chloro-6-fluorophenyl)-5-(1-(2-chlorophenyl)-5-(trifluoromethyl)-1H-pyrazol-4-yl)-4-(thiazol-2-yl)isoxazole], for which the IC50 in the assay with IFN-γ (setting [2]) fell in the range of 100 to 1000 nM; in assay [1] (setting [3]), 1000 to 10000 nM; with IL-17FF (setting [4]), 1000 to 10000 nM.
Turning to `Fc1ccccc1-n1ncc(-c2onc(-c3c(F)cccc3Cl)c2-c2nccs2)c1C(F)(F)F` [Example B-30, 3-(2-chloro-6-fluorophenyl)-5-(1-(2-fluorophenyl)-5-(trifluoromethyl)-1H-pyrazol-4-yl)-4-(thiazol-2-yl)isoxazole], the IC50 (in the assay with IFN-γ (setting [2]); in assay [1] (setting [3]); in the assay on IL-17FF (setting [4])) was 10 to 100 nM in each case.
As to `COc1cccc(Cl)c1-c1noc(-c2cnn(-c3cccnc3)c2C(F)(F)F)c1-c1cnco1` [Example B-31, 3-(2-chloro-6-methoxyphenyl)-4-(oxazol-5-yl)-5-(1-(pyridin-3-yl)-5-(trifluoromethyl)-1H-pyrazol-4-yl)isoxazole], the IC50 lay in the range of 100 to 1000 nM in the assay on IFN-γ (setting [2]), 1000 to 10000 nM in assay [1] (setting [3]) and 1000 to 10000 nM with IL-17FF (setting [4]).
Take `Fc1cccc(Cl)c1-c1noc(-c2cnn(-c3cccnc3)c2C(F)(F)F)c1-c1cnco1` [Example B-32, 3-(2-chloro-6-fluorophenyl)-4-(oxazol-5-yl)-5-(1-(pyridin-3-yl)-5-(trifluoromethyl)-1H-pyrazol-4-yl)isoxazole]: the IC50 in the assay on IFN-γ (setting [2]) lay within 100 to 1000 nM; in assay [1] (setting [3]) it was 1000 to 10000 nM; with IL-17FF (setting [4]), 1000 to 10000 nM.
Turning to `Fc1cccc(Cl)c1-c1noc(-c2cnn(-c3ccncc3)c2C(F)(F)F)c1-c1cnco1` [Example B-33, 3-(2-chloro-6-fluorophenyl)-4-(oxazol-5-yl)-5-(1-(pyridin-4-yl)-5-(trifluoromethyl)-1H-pyrazol-4-yl)isoxazole], the IC50 was 100 to 1000 nM in the assay with IFN-γ (setting [2]), 1000 to 10000 nM in assay [1] (setting [3]) and 1000 to 10000 nM in the assay with IL-17FF (setting [4]).
Turning to `COc1cccc(Cl)c1-c1noc(-c2cnn(-c3ccccc3Cl)c2C(F)(F)F)c1-c1cnco1` [Example B-34, 3-(2-chloro-6-methoxyphenyl)-5-(1-(2-chlorophenyl)-5-(trifluoromethyl)-1H-pyrazol-4-yl)-4-(oxazol-5-yl)isoxazole], the IC50 (in the assay with IFN-γ (setting [2]); in assay [1] (setting [3]); in the assay with IL-17FF (setting [4])) was 100 to 1000 nM in each case.
On to `COC(=O)c1c(-c2c(F)cccc2Cl)noc1-c1cnn(-c2ccccc2F)c1C(F)(F)F` [Example I-1, methyl 3-(2-chloro-6-fluorophenyl)-5-(1-(2-fluorophenyl)-5-(trifluoromethyl)-1H-pyrazol-4-yl)isoxazole-4-carboxylate], for which the IC50 is < 10 nM in the assay on IFN-γ (setting [5]), 10 to 100 nM in assay [1] (setting [6]) and 10 to 100 nM in the assay on IL-17FF (setting [7]).
In the case of `COC(=O)c1c(-c2c(F)cccc2Cl)noc1-c1cnn(-c2ccc(F)cc2)c1C(F)(F)F` [Example I-3, methyl 3-(2-chloro-6-fluorophenyl)-5-(1-(4-fluorophenyl)-5-(trifluoromethyl)-1H-pyrazol-4-yl)isoxazole-4-carboxylate], the IC50 in the assay with IFN-γ (setting [5]) is < 10 nM; in assay [1] (setting [6]), 10 to 100 nM; in the assay with IL-17FF (setting [7]) it was < 10 nM.
Take `CCOC(=O)c1c(-c2onc(-c3c(F)cccc3Cl)c2C(=O)OC)cnn1-c1ccc(Cl)cc1Cl` [Example I-6, methyl 3-(2-chloro-6-fluorophenyl)-5-(1-(2,4-dichlorophenyl)-5-(ethoxycarbonyl)-1H-pyrazol-4-yl)isoxazole-4-carboxylate]: the IC50 (in the assay with IFN-γ (setting [5]); in assay [1] (setting [6]); in the assay with IL-17FF (setting [7])) was 1000 to 10000 nM in each case.
Regarding `CCOC(=O)c1c(-c2onc(-c3c(F)cccc3Cl)c2C(=O)OC)cnn1-c1cccc(F)c1` [Example I-8, methyl 3-(2-chloro-6-fluorophenyl)-5-(5-(ethoxycarbonyl)-1-(3-fluorophenyl)-1H-pyrazol-4-yl)isoxazole-4-carboxylate], the IC50 (with IFN-γ (setting [5]); in assay [1] (setting [6]); with IL-17FF (setting [7])) was 100 to 1000 nM in each case.
Turning to `CCOC(=O)c1c(-c2onc(-c3c(F)cccc3Cl)c2C(=O)OC)cnn1-c1cccc(Cl)c1` [Example I-10, methyl 3-(2-chloro-6-fluorophenyl)-5-(1-(3-chlorophenyl)-5-(ethoxycarbonyl)-1H-pyrazol-4-yl)isoxazole-4-carboxylate], the IC50 was 10 to 100 nM with IFN-γ (setting [5]), 10 to 100 nM in assay [1] (setting [6]) and 100 to 1000 nM in the assay on IL-17FF (setting [7]).
As for `CCOC(=O)c1c(-c2onc(-c3c(F)cccc3Cl)c2C(=O)OC)cnn1-c1cccc(C#N)c1` [Example I-13, methyl 3-(2-chloro-6-fluorophenyl)-5-(1-(3-cyanophenyl)-5-(ethoxycarbonyl)-1H-pyrazol-4-yl)isoxazole-4-carboxylate], the IC50 (with IFN-γ (setting [5]); in assay [1] (setting [6]); with IL-17FF (setting [7])) was 100 to 1000 nM in each case.
For the compound `O=C(c1c(-c2c(F)cccc2Cl)noc1-c1cnn(-c2ccccc2F)c1C(F)(F)F)N1CCOCC1` [Example I-16, (3-(2-chloro-6-fluorophenyl)-5-(1-(2-fluorophenyl)-5-(trifluoromethyl)-1H-pyrazol-4-yl)isoxazol-4-yl)(morpholino)methanone], the figures for the IC50 (in the assay on IFN-γ (setting [5]); in assay [1] (setting [6]); with IL-17FF (setting [7])) were 100 to 1000 nM, 1000 to 10000 nM and 100 to 1000 nM, respectively.
As to `CN1CCN(C(=O)c2c(-c3c(F)cccc3Cl)noc2-c2cnn(-c3ccccc3F)c2C(F)(F)F)CC1` [Example I-17, (3-(2-chloro-6-fluorophenyl)-5-(1-(2-fluorophenyl)-5-(trifluoromethyl)-1H-pyrazol-4-yl)isoxazol-4-yl)(4-methylpiperazin-1-yl)methanone], the IC50 lay within 100 to 1000 nM with IFN-γ (setting [5]), 1000 to 10000 nM in assay [1] (setting [6]) and 100 to 1000 nM in the assay with IL-17FF (setting [7]).
